Reference: US8974823B2, “Solid compositions of low-solubility drugs and poloxamers” (Bend Research, Inc., priority 2003, dated 2015)
Values after ≈ are worked out from the molar mass of the structure shown.

Columns and labels:
[1] = in vivo test of oral powder for constitution in fasted male beagle dogs (plasma Drug 4); settings: dog, oral gavage OPC
Protocol: The composition of Example 16 was used as oral powders for constitution (OPC) for evaluating the performance of the compositions in in vivo tests using male beagle dogs. The OPC was dosed as a suspension in a solution containing 0.5 wt % […] METHOCEL® (from Dow Chemical Co.), and was prepared as follows. First, 7.5 g of METHOCEL® was weighed out and added slowly to approximately 490 mL of water at 90-100° C. to form a METHOCEL® suspension. After all the METHOCELS® was added, 1000 mL of cool/room temperature water was added to the suspension, which was then placed in an ice water bath. When all of the METHOCEL® had dissolved, 2.55 g of polyoxyethylene 20 sorbitan monooleate (TWEEN 80) were added and the mixture stirred until the TWEEN 80 had dissolved, thus forming a stock suspension solution.
To form the OPC, sufficient quantity of the test composition to result in a 90 mgA amount of Drug 4 was weighed and placed into a mortar. (“mgA” refers to mg of active drug.) A 20 mL quantity of the stock suspension solution was added to the mortar and the test composition was mixed with a pestle. […]
Six male beagle dogs were each dosed with the OPC. […] Whole blood samples were taken from the jugular vein and analyzed for the concentration of Drug 4 using the following procedure. […]

[2] = aqueous solubility of the drug; settings: aqueous solution
[3] = drugs of prior-art compositions, background section; cited from earlier work

CCOC(=O)N1c2ccc(C(F)(F)F)cc2[C@@H](N(Cc2cc(C(F)(F)F)cc(C(F)(F)F)c2)C(=O)OC)C[C@H]1CC [Control C7, Torcetrapib]
Cmax ([1]; 90 mgA Drug 4): < 100 ng/mL
AUC(0-t) ([1]; 90 mgA Drug 4, read-out: AUC(0–24)): < 200 ng·h/mL

Cc1c(O)cccc1C(=O)N[C@@H](CSc1ccccc1)[C@H](O)CN1C[C@H]2CCCC[C@H]2C[C@H]1C(=O)NC(C)(C)C [Drug 3, N-(1,1-dimethylethyl) decahydro-2-[(2R,3R)-2-hydroxy-3-[(3-hydroxy-2-methylbenzoyl)amino]-4-(phenylthio)butyl]-3-isoquinolinecarboxamide (3s, 4aS, 8aS)-monomethanesulfonate]
solubility [2]: ~6 µg/mL (≈ 10.6 µM)

COc1ccccc1OCCNCC(O)COc1cccc2[nH]c3ccccc3c12 (stereo not shown) [carvedilol]
glass transition temperature (Tg) [3]: about 39 °C
